From patent US12035717B1, “2-OXO-2-({2-[(phenylcarbamoyl)oxy]ethyl} amino)ethyl phenylcarbamate as an eco-friendly insecticidal agent against spodoptera littoralis (boisd.)” (priority 2024, dated 2024)
Converted amounts (≈) assume the structure as drawn.

Tested on: Spodoptera littoralis larvae (laboratory strain of cotton leafworm)
Experiment: Insecticidal leaf dip bioassay on S. littoralis larvae
Details: for LC50: after 72 hours of treatment, castor leaf dip; for Toxicity index % / Toxicity ratio: 72 hours; for Toxicity index %: fenoxycarb = 100; for Toxicity ratio: fenoxycarb's LC50/compound's LC50 * 100
[1] = Spodoptera littoralis, in Gossypium hirsutum, foliar, 72 h, 4th instar larvae
[2] = Spodoptera littoralis, in Gossypium hirsutum, foliar, 72 h, 2nd instar larvae

Experimental: Five concentrations (200, 100, 50, 25, 12.5 ppm) were designed for this synthetic compound and the reference fenoxycarb's compound as the dynamic ingredients based on ppm via diluting the commercial formulation.
In this experiment, the synthetic compound was tested for its insecticidal bioactivity using the industry-standard leaf dip bioassay techniques. […] Until usage, the stocks were kept in a refrigerator. The target substance test results were noted & the concentrations needed to destroy 50% (LC50) of S. littoralis larvae were calculated. The target compound was employed in five different concentrations, & 0.1% Tween 80 was employed as a surfactant. Castor bean leaf discs (nine centimeters in diameter) were dipped in the concentration under test for ten seconds, then fed to 2th & 4th larvae, which were roughly the same size and housed in glass jars (five pound). Each action carried out 3 times with ten larvae each. The mortality equalized via Abbott's formula. Calculations of mortality setback line were measurably rummage via probity analysis. Harmfulness index was strongminded via sun equations. The mortality results of larval insect were estimated through employing probit analysis through a statistics (LDP-line) equation which estimate the LC50 values with 95% fiducially limits of lower, upper confidence limit and slope.

| Structure (SMILES) | LC50 (2nd instar larvae) | LC50 [1] [µg/mL] | Toxicity index % (2nd instar larvae) [%] | Toxicity ratio (4th instar larvae) | LC50 (4th instar larvae) [µg/mL] | LC50 [2] [µg/mL] | Activity against Spodoptera littoralis (in words) (summary of Table 1 data) |
| --- | --- | --- | --- | --- | --- | --- | --- |
| O=C(COC(=O)Nc1ccccc1)NCCOC(=O)Nc1ccccc1 [2-oxo-2-({2-[(phenylcarbamoyl)oxy]ethyl}amino)ethyl phenylca] [2-oxo-2-({2-[(phenylcarbamoyl)oxy]ethyl}amino)ethyl phenylcarbamate] | about 14.80 mg/L |  |  |  |  |  |  |
| O=C(COC(=O)Nc1ccccc1)NCCOC(=O)Nc1ccccc1 [2-oxo-2-({2-[(phenylcarbamoyl)oxy]ethyl}amino)ethyl phenylcarbamate] |  | ~81 (≈ 227 µM) |  |  |  |  |  |
| O=C(COC(=O)Nc1ccccc1)NCCOC(=O)Nc1ccccc1 [Compound 2, 2-oxo-2-({2-[(phenylcarbamoyl)oxy]ethyl}amino)ethyl phenylcarbamate] |  |  | 40.13 | 73.98 | 80.98 (≈ 227 µM) | 14.8 (≈ 41.4 µM) | active against Spodoptera littoralis |
| CCOC(=O)NCCOc1ccc(Oc2ccccc2)cc1 [Fenoxycarb, reference compound] |  | 59.9 (≈ 199 µM) | 100 | 100 |  | 5.94 (≈ 19.7 µM) |  |
